Measured values reported in patent US6121241A, “Anticoagulant peptide aldehyde derivatives” (Gyogyszerkutato Intezet Kft., priority 1996, dated 2000).
Where a name gives a salt, the structure may show the parent alone. Read-outs that look alike come from different tables or passages of the source. Blank lines part the entries; values can stand above or below the compound they belong to. Square brackets hold non-standard residues; d marks the D form. Peptide text beside a SMILES is read from it. * marks the point of attachment. 1Nal = N[C@@H](Cc1cccc2ccccc12)C(=O)O; Boc = CC(C)(C)OC(=O)*

How the values were obtained:
[1] = test system: citrate plasma coagulation (PT); test: Prothrombin time (PT) plasma clotting test; format: biochemical; details: concentration doubling clotting time
Experimental: (§1) Anticoagutant activity (i.e. inhibition of the proteolytic reactions in the process) is measured by anticoagulant tests, e.g. by the thrombin time (TT), activated partial thromboplastin time (APTT) and prothrombin time (PT) tests [E. J. W. Bovie et al; Mayo Clinic Laboratory Manual of Hemostasis; W. B. Sanuders Co., Philadelphia (1971)]. Plasma, inhibited in spontaneous coagulation, e.g. citrate-plasma, is made to coagulate and the required coagulation time is measured. Upon the action of anticoagulants the coagulation time is prolonged proportionally to the inhibition of the reaction(s) in the process. The anticoagulant effect can be characterized by the substance concentration required to double the coagulation time compared to the control (IC50). The effect of anticoagulants on individual coagulant proteases is measured by the amidolytic method [R. Lottenberg et al., Methods in Enzymol. 80, 341 (1981); G. Cleason, Blood Coagulation and Fibrinolysis 5, 411 (1994)]. The isolated active factor (e.g. thrombin, fXa) and its chromogen or fluorogen peptide-amide substrate are reacted in the presence or absence of the inhibitor, resp. The enzyme inhibiting action is characterized by the inhibitory constant (IC50) measured during amidolysis.
(§2) In the TT test coagulation is initiated by the thrombin added to the citrate plasma. In the system 22 pmol/mL of thrombin is functioning and in the presence of plasma components its inhibition can be measured on the fibrinogen (one of the natural substrates of thrombin) present In the APTT and PT tests the full coagulation process is made to proceed. Depending on the activator fX is activated by the extrinsic or intrinsic pathway. The generated fXa activates prothrombin to thrombin which, in turn, triggers plasma coagulation. In the test the coagulation time is prolonged if the enzymes or one of them is inhibited by the inhibitor. In the APTT and PT tests at most 40 pmole/ml Xa is generated (this is the full amount of factor X present in both systems) while 150 pmole/ml (APTT) and 350 pmole/ml (PT) are generated from thrombin [B Kaiser et al., Thromb. Res. 65, 157 (1992)].
(§3) The in vitro anticoagulant effect of the compounds of general formula (I) was measured by the prothrombin time (PT), activated partial thromboplastin time (APTT) and thrombin time (TT) tests [D. Bagdy et at., Thromb. Haemost. 67, 325 (1992)]. The Xa-factor-inhibiting effect of the compounds was also determined by using the Bz-Ile-Glu-Gly-Arg-pNA chromogen substrate (see method M6).

[2] = target: T1, thrombin (Homo sapiens, UniProt P00734); test: Thrombin time (TT) plasma clotting test; format: biochemical; details: concentration doubling clotting time
T1 construct: The isolated active factor (e.g. thrombin, fXa) and its chromogen or fluorogen peptide-amide substrate are reacted
Experimental: as §1, §2, §3

[3] = target: urokinase (UK) (Homo sapiens, UniProt P00749); test: Fibrin-plate method, plasmin formation induced by urokinase; format: biochemical; details: for IC50: fibrin-plate method, hydrolyzed area reduced by 50%
From the text: (§4) The inhibitory effect of the new compounds of the invention on plasmin (PL) as well as on plasmin formation induced by tissue plasminagen activator (tPA) and urokinase (UK) was studied by the […] [D. Bagdy et al.; Thromb. Haemost. 67, 325 (1992)]. Compounds C1 and C3 served as controls. […] V. Jackson et al., J. Cardiovasc. Pharmacol. 21, 587 (1993)].
(§5) ^a IC50 = peptide concentration (mM) where the hydrolyzed area o
(§6) the fibrin plate is reduced by 50% compared to the control

[4] = target: plasmin (PL) (Homo sapiens, UniProt P00747); test: Fibrin-plate method, plasmin; format: biochemical; details: for IC50: fibrin-plate method, hydrolyzed area reduced by 50%
From the text: as §4, §5, §6

[5] = target: tissue plasminogen activator (tPA) (Homo sapiens, UniProt P00750); test: Fibrin-plate method, plasmin formation induced by tPA; format: biochemical; details: for IC50: fibrin-plate method, hydrolyzed area reduced by 50%
From the text: as §4, §5, §6

[6] = test system: citrate plasma coagulation (APTT); test: Activated partial thromboplastin time (APTT) plasma clotting test; format: biochemical; details: concentration doubling clotting time
Experimental: as §1, §2, §3

[7] = target: T2, human factor Xa (Homo sapiens, UniProt P00742); test: Inhibition of the amidolytic effect of factor Xa in solution on Bz-Ile-Glu-Gly-Arg-pNA (method M6); format: biochemical
T2 construct: purchased SIGMA
Experimental: as §1, §3
Assay of the Inhibition of Factor Xa in Solution on a 96-well Microtiter Plate
a) 1.3 U/mL factor Xa (human, SIGMA), 0.1-1.0-10 and 100 μg/mL solutions in phosphate buffer (0.1 M sodium phosphate and 0.05 M sodium chloride, pH 7.4) of the peptide inhibitors and […] solutions of the substrate Bz-Ile-Glu-Gly-Arg-pNA in distilled water are used.
b) Three reaction mixtures are prepared from the control and each peptide solution. 30 μL each of the peptide and the buffer, serving as control, 30 μL factor Xa, 90 μL butter and 150 μL substrate are placed in the wells of the plate, then after 10 minutes the extinction values are read at 405 nm The procedure is continued as described in Method M2, point c).

[8] = target: fXa (Homo sapiens, UniProt P00742); details: Z-D-Arg-Gly-Arg-pNA substrate; according to the literature; read-out: IC50, amidolytic activity of fXa; cited from earlier work
[9] = target: T1, thrombin; details: specific fXa inhibitors, literature; cited from earlier work
[10] = test system: citrate plasma coagulation (PT); details: Table 1; published value; read-out: B: IC50, PT; cited from earlier work
[11] = test system: citrate plasma coagulation (APTT); details: Table 1; published value; read-out: B: IC50, APTT; cited from earlier work
[12] = target: T3, fibrin-gel bound thrombin (Homo sapiens, UniProt P00734); test: Inhibition of thrombin bound to fibrin-gel (methods M4, M5); format: biochemical; details: Tos-Gly-Pro-Arg-pNA substrate
T3 construct: Here prothrombin is converted to thrombin; purchased SIGMA
Experimental: (§7) The plasma clot was obtained by the recalcification of platelet-rich human citrate plasma and fibrin gel by the coagulation of human fibrinogen with human thrombin Z-D-Arg-Gly-Arg-pNA and Tos Gly-Pro-Arg-pNA were used as substrates for measuring the activity of factor Xa and thrombin (methods M1-M5).
Preparation of Fibrin-Gel
a) 200 μL of 6 mg/mL human fibrinogen (SIGMA), 25 μL of 25 NIH U/mL human thrombin (SIGMA) and 40 μL of 100 mM calcium chloride solution are placed in each reaction vessel and the mixtures are stored for one hour at 20-22° C. The fibrin formed is rinsed mildly with 3×2 ml of isotonic saline solution followed by sedimentation to remove the thrombin content of the solution. The efficacy of rinsing is controlled by the process described in Method M1, point c).
Assay of the Inhibition of Thrombin Bound to Fibrin-Gel
a) 0.1-1.0-10 and 100 μg/ml solutions are prepared with Hepes/NaCl buffer (0.01 M Hepes and 0.1 M sodium chloride, pH=7.4).
b) Thereafter the procedure described in Method M3, point b) is followed.

[13] = target: T4, plasma clot entrapped thrombin (Homo sapiens, UniProt P00734); test: Inhibition of thrombin entrapped in plasma clot (methods M1, M3); format: biochemical; details: platelet-rich human plasma clot; Tos-Gly-Pro-Arg-pNA substrate
T4 construct: Here prothrombin is converted to thrombin; from tissue; host or cells: clot of recalcified platelet-rich human citrate plasma
Experimental: as §7
Preparation of Plasma Clot
a) Platelet-rich plasma (PRP) is prepared by centrifuging a 9:1 mixture of human blood and 3.8% aqueous sodium citrate solution (1/2) for 5 minutes at 240×g.
b) 200 μL of PRP are placed in each reaction vessel, 80 μL of 40 mM calcium chloride solution is added and the mixture is left to stand at room temperature for one hour. The plasma clot formed is rinsed mildly with 6×2 ml of 0.9% sodium chloride solution followed by 5 minute sedimentation to remove the dissolved enzymes (factor Xa and thrombin). The thrombin content of the washings is assayed as follows.
c) To 400 μL of washing liquid 100 μL of 1 mM Tos-Gly-Pro-Arg-pNA substrate solution is added and the mixture is incubated for 30 minutes at 37° C., then the reaction is stopped by the addition of 100 μL of 50% acetic acid. 150 μL portions of this mixture are transferred into the wells of the 96-well microtiter plate and the extinction is measured at 405 nm (ELISA READER SLT Laborinstrument GmbH, Austria). When the washing is successful, the extinction is less than 5% of the control
Assay of the Inhibition of Thrombin Entrapped in Plasma Clot
a) Peptide inhibitor solutions are prepared by the process described in Method M2, point a).
b) After draining the washing liquid, 400 μL of the peptide solution (3 parallel samples for each concentration) and 400 μL of buffer, serving as control, are placed on the clot (Method M1) and the mixture is incubated for 5 minutes at 37° C. Thereafter 100 μL of […] Tos-Gly-Pro-Arg-pNA substrate solution is added and incubation at 37° C. is continued for further 30 minutes, then the reaction is stopped by the addition of 100 μL of 50% acetic acid. The operation is continued as described in Method M2, point c).

[14] = Table 2, read-out: A: IC50, APTT
[15] = Table 2, Bz-Ile-Glu-Gly-Arg-pNA, isolated human factor Xa, read-out: B: IC50 (factor Xa inhibiting effect)
[16] = Table 1, read-out: B: IC50, APTT
[17] = Table 1, Bz-Ile-Glu-Gly-Arg-pNA chromogen substrate, read-out: A: IC50 (fXa inhibiting effect)
[18] = related to the activity of C1 (1/IC50 = 1)

Sequence of plasmin (PL) (P00747 581-810 limits assumed, species assumed): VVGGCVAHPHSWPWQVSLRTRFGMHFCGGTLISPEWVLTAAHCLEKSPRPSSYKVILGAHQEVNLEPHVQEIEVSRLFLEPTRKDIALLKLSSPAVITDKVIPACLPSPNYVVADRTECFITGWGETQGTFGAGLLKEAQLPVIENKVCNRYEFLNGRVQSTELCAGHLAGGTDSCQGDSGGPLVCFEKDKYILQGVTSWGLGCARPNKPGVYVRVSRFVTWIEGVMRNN
Sequence of plasmin (PL) (P00747 97-580 partner limits assumed, species assumed): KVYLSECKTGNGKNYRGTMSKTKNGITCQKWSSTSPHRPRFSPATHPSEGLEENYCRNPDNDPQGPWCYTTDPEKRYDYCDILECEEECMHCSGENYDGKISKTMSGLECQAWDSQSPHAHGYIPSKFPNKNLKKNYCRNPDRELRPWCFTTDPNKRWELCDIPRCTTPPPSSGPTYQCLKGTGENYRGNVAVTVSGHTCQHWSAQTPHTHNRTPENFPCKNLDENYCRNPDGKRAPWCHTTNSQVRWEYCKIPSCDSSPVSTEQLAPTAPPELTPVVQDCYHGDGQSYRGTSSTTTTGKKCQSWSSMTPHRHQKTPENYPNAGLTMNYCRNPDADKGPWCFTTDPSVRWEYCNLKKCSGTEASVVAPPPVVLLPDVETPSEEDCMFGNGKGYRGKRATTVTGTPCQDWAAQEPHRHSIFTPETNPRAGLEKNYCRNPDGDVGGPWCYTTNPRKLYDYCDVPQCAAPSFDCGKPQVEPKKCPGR
Sequence of tissue plasminogen activator (tPA) (P00750 36-562, species assumed): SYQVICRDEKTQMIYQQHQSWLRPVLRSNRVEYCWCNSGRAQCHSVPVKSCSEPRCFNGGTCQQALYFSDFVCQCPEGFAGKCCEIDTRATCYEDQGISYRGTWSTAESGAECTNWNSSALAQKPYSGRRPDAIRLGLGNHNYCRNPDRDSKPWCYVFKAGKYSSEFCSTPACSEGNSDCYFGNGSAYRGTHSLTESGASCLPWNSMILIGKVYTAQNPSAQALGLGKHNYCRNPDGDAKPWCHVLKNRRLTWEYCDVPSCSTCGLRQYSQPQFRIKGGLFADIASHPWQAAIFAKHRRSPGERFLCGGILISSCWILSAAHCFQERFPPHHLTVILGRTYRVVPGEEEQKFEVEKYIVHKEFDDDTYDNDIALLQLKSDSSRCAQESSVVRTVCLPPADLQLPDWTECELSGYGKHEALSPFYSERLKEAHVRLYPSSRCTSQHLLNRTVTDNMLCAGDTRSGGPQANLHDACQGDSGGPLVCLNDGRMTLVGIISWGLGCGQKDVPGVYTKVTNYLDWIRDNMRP
T2 sequence (P00742 235-488 limits assumed): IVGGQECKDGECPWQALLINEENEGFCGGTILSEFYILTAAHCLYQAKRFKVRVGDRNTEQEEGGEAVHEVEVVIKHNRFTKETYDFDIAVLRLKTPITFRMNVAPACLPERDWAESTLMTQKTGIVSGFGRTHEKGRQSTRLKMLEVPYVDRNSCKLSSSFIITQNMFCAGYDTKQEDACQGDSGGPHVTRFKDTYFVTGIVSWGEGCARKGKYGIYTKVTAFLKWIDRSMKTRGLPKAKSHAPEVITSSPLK
T2 sequence (P00742 41-179 partner limits assumed): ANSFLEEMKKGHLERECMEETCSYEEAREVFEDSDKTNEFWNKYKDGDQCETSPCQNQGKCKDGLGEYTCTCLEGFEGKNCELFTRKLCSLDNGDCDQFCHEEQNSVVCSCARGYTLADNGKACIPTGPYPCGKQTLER
Sequence of fXa (P00742 235-488 limits assumed): as the sequence (P00742 235-488 limits assumed) above
Sequence of fXa (P00742 41-179 partner limits assumed): as the sequence (P00742 41-179 partner limits assumed) above

Compound: N=C(N)NCCC[C@@H](C=O)NC(=O)[C@H]1CCCN1C(=O)C(O)C1CCCC1.N=C(N)NCCC[C@@H](C=O)NC(=O)[C@H]1CCCN1C(=O)C(O)C1CCCC1.O=S(=O)(O)O (stereo partly drawn) [Compound 2, D-2-Cyclopentyl-2-hydroxyacetyl-L-prolyl-L-arginine aldehyde hemisulfate]
IC50 ([1]; Table 2, read-out: A: IC50, PT): 2.03 µM
IC50 ([2]; Table 2, read-out: A: IC50, TT): 0.1 µM
B: relative efficacy, UK [3]: 0.6
IC50 [3]: 137 µM
times lower activity than compound C3, third enzyme (UK) ([3]; versus C3 of Table 4): 39
B: relative efficacy, PL [4]: 0.13
IC50 [4]: 390 µM
times lower activity than compound C3, first enzyme (PL) ([4]; versus C3 of Table 4): 7.5
B: relative efficacy, tPA [5]: 1.2
IC50 [5]: 112 µM
times lower activity than compound C3, second enzyme (tPA) ([5]; versus C3 of Table 4): 12
IC50 [6, 14]: 0.71 µM
IC50 [7, 15]: 0.107 µM

IC50 ([1]; Table 1, read-out: B: IC50, PT): 19.3 µM
IC50 ([2]; Table 1, read-out: B: IC50, TT): 0.87 µM
IC50 [6, 16]: 4.59 µM
IC50 [7, 17]: 0.064 µM
Compound: 4-MeP-Asp-Pro-Arg-H [Compound C3]
IC50 [8]: 0.057 µM

Compound: CC(=N)N1CC[C@H](Oc2ccc([C@H](Cc3ccc4ccc(C(=N)N)cc4c3)C(=O)O)cc2)C1 [Compound C2, (+)-(2S)-2-[4[[(3S)-1-acetimidoyl-3-pyrrolidinyl]oxy]phenyl]-3-[7[amidino-2-naphthyl]-propionic acid hydrochloride pentahydrate]
activity in the TT test [9]: fail to exert any activity
IC50 [10]: 0.52 µM
IC50 [11]: 0.97 µM

IC50 ([1]; Table 1, read-out: B: IC50, PT): 53.6 µM
IC50 ([2]; Table 1, read-out: B: IC50, TT): 17.2 µM
IC50 [6, 16]: 9.96 µM
IC50 [7, 17]: 0.086 µM
Compound: CC(C)(C)OC(=O)N[C@H](Cc1ccccc1)C(=O)N[C@@H](Cc1cccc2ccccc12)C(=O)N[C@H](C=O)CCCN=C(N)N [Compound C4, Boc-D-Phe-Nal(1)-Arg-H] (Boc-[dF]-[1Nal]-Arg-aldehyde)
IC50 [8]: 0.03 µM

Compound: TAP: 60-member polypeptide isolated from tick, fXa inhibitor (YNRLCIKPRDWIDECDSNEGGERAYFRNGKGGCDSFWICPEDHTGADYYSSYRDCFNACI; UniProt P17726 1-60, looked up)
activity in the TT test [9]: fail to exert any activity

IC50 [3]: 3 µM
B: relative efficacy, UK [3, 18]: 27.3
IC50 [4]: 12 µM
B: relative efficacy, PL [4, 18]: 4.5
IC50 [5]: 6 µM
B: relative efficacy, tPA [5, 18]: 22.0
Compound: CC(C)(C)OC(=O)N[C@H](Cc1ccccc1)C(=O)N1CCC[C@H]1C(=O)N[C@H](C=O)CCCNC(=N)N [Boc-D-Phe-Pro-Arg-H]

IC50 ([1]; Table 2, read-out: A: IC50, PT): 2.14 µM
IC50 [12]: 0.22 µM
IC50 [13]: 0.27 µM
IC50 ([2]; Table 2, read-out: A: IC50, TT): 0.22 µM
IC50 [6, 14]: 0.79 µM
IC50 [7, 15]: 0.247 µM
Compound: NC(N)=NCCC[C@@H](C=O)NC(=O)[C@@H]1CCCN1C(=O)[C@H](O)C1CCCCC1 [Compound C5, D-Hma-Pro-Arg-H]
